The source of these data is patent publication US20150374734A1, “ACTIVATION OF iNKT CELLS” (INSERM (INSTITUT NATIONAL DE LA SANTÉ ET DE LA RECHERCHE …, priority 2013, published 2015).

Assay [1] has as its system splenic iNKT cells. The experiment in a line: Primary iNKT cell activation in vivo (intracellular IFN-γ, serum IL-4). Further details: species or system mouse. As to the method: (§1) FIG. 1: DCs are crucial for iNKT cell primo-activation and for the prevention of iNKT cell anergy. (A) Transgenic CD11c.DTR mice were injected with PBS or DT 24 h before α-GalCer inoculation (100 ng/mouse). (B) Spleen DCs were sorted on the basis of CD11c expression and sensitized for 2 h with α-GalCer (25 ng/ml). Mice were then injected with α-GalCer-sensitized DCs or free α-GalCer (100 ng/mouse). A and B, Mice were euthanized 3 h after α-GalCer (A and B) or DC/α-GalCer (B) inoculation (primo-activation, grey) or received a second intravenous injection of α-GalCer (100 ng/mouse) 7 days later (recall response, black). In these later groups, animals were sacrificed 3 h after α-GalCer challenge. Splenic iNKT cells were then analysed for intracellular IFN-γ production. A representative experiment out of two (A) or three (B) is shown (mean±SD) (n=4). ** p<0.01, * p<0.05 (unpaired Student's t test).
FIG. 4: Encapsulation of α-GalCer in NP/DEC205 efficiently activates iNKT cells in vivo. Mice were intravenously injected with PBS alone or α-GalCer either in a free soluble form or encapsulated into NP/DEC205 or NP/IgG (5 ng α-GalCer/mouse). […] Production of IL-4 in the sera was quantified by ELISA (right panel) (n=3-8). […] The expression of CD86 (expressed as MFI) by DCs (CD11c^hi) is depicted. […]
FIG. 5: Targeting α-GalCer into CD8α^+ DCs prevents iNKT cell anergy in vivo. […] Production of IL-4 in the sera was quantified by ELISA (right panel). […]
Cells were resuspended in the appropriate combination of Abs to allow identification of DC subsets (anti-CD11c, anti-CD8α, anti-CD11b), iNKT cells (anti-TCRβ, PBS-57-loaded CD1d tetramer), NK cells (anti-CD3ε, anti-NK1.1) or γδ T lymphocytes (anti-TCRγδ, anti-CD3ε). […] Expression of intracellular IFN-γ was analysed as previously described.^32 To measure Cy5-α-GalCer incorporation by splenic DC subsets, mice were intravenously injected with Cy5-conjugated α-GalCer (20 μg) and 2 h later, incorporation of Cy5 by spleen DC subsets was analysed by flow cytometry. […]

Assay [2] has as its system sorted hepatic NKT cells. The experiment in a line: Ex vivo stimulatory capacity of in vivo α-GalCer-loaded DC subsets on NKT cells. The assay is classed as cell-based, mouse. The note with it: DCs sorted 2 h after i.v. α-GalCer 2 μg; 48 h co-culture. As to the method:
(§2) FIG. 2: CD8α^+ and CD8α^− DCs differ in their ability to activate iNKT cells. A, B and C, Mice were intravenously injected with α-GalCer (2 μg). Two hours later, splenic CD8α^+ and CD8α^− DCs were sorted on the basis of CD11c, CD11b and CD8 expression (A) and co-cultured with sorted NKT cells (B) or with the α-GalCer-responsive IL-2-producing iNKT cell hybridoma DN32.D3 as a readout of Ag presentation (C). B and C, Cytokine production was quantified by ELISA. Results represent the mean±SD of four experiments. D, CD1d expression on CD8α^+ and CD8α^− DCs was assessed by flow cytometry. The staining with the isotype control was identical on both DC subsets. […] E, Recipient mice were intravenously injected with Cy5-conjugated, or unconjugated as a control, α-GalCer (20 μg) and Cy5 incorporation by CD8α^+ DCs (grey) and CD8α^− DCs (black) was analyzed by flow cytometry 2 h later. […]
(§3) To assess the capacity of DCs to bind/uptake PLGA-based NPs, bone marrow-derived DCs (BM-DCs) (5×10^5 cells/well)^32 or spleen mononuclear cells (MNCs) (1×10^6 cells/well) were exposed with AlexaFluor647-labelled particles (10 μg/ml and 100 μg/ml, respectively) during 2 h at 37° C. After extensive washes, BM-DC (CD11c^+ DEC205^+/−) and spleen CD8α^+ and CD8α^− DCs were analysed by flow cytometry. […] Production of IFN-γ, IL-4 and IL-2 was measured in the culture supernatants by ELISA (R&D systems).

The test system of assay [3] is iNKT cell hybridoma DN32.D3. As to the kind of experiment: Ex vivo stimulatory capacity of in vivo α-GalCer-loaded DC subsets on DN32.D3. The assay is classed as cell-based, mouse. The note with it: DCs sorted 2 h after i.v. α-GalCer 2 μg; 24 h co-culture. As to the method: as §2, §3
The test system of assay [4] is splenic iNKT cells. The experiment in a line: iNKT cell recall response / anergy in vivo. Further details: species or system mouse. As to the method:
as §1
FIG. 5: Targeting α-GalCer into CD8α^+ DCs prevents iNKT cell anergy in vivo. Mice were intravenously injected with PBS, free α-GalCer (100 ng/mouse) or α-GalCer encapsulated into NP/DEC205 or NP/IgG (5 ng/mouse). A, After 3 h, mice were bled and splenic iNKT cells were screened for intracellular IFN-γ production. The average percentages±SD of iNKT cells positive for IFN-γ are represented (left panel). Production of IL-4 in the sera was quantified by ELISA (right panel). B, Mice received, 7 days later, a second injection of free α-GalCer ([…]) and spleen iNKT cells were screened for intracellular IFN-γ production 3 h later. […] A representative experiment out of two is shown (mean±SD) (n=3) C, The percentage±SD of iNKT cells expressing PD-1 is represented (7 days after α-GalCer stimulation). A representative experiment out of two is shown (n=4). ** p<0.01, * p<0.05 (unpaired Student's t test).
Mice were administrated intravenously with 200 μl of PBS containing 5 ng of free (or 100 ng as a control) or encapsulated α-GalCer. […] Splenic iNKT cells were analysed for intracellular IFN-γ expression and IFN-γ and IL-4 concentrations in the sera were determined by ELISA.

As for `CCCCCCCCCCCCCCCCCCCCCCCCCC(=O)N[C@@H](CO[C@H]1O[C@H](CO)[C@H](O)[C@H](O)[C@H]1O)[C@H](O)[C@H](O)CCCCCCCCCCCCCC` [α-GalCer, (2S,3S,4R)-1-O-(alpha-D-galactosyl)-N-hexacosanoyl-2-amino-1,3,4-octadecanetriol], in assay [1] (CD11c.DTR mice, DT 24 h before, α-GalCer 100 ng/mouse), the “Primary iNKT cell activation after DC depletion” value is recorded as “strongly lowered the extent of primary iNKT cell activation”. Also, the “Primary iNKT cell activation, low dose in NP/DEC205 vs high dose free” value in assay [1] (NP/DEC205 5 ng/mouse, free α-GalCer 100 ng/mouse, 3 h) is recorded as “comparable primary iNKT cell activation”. In assay [1] (free 100 ng/mouse, DCs sensitized 2 h with 25 ng/ml, 3 h), the “Primary iNKT cell activation, free α-GalCer vs α-GalCer-sensitized DCs” value is “triggered a similar primary activation of iNKT cells”. Besides, the “Secretion of IFN-γ and IL-4 by NKT cells co-cultured with DC subsets” value in assay [2] is “CD8α^+ DCs promoted a much stronger secretion of IFN-γ and IL-4”. Also, in assay [3], the “IL-2 production by DN32.D3 co-cultured with DC subsets” value is on record as “CD8α^+ DCs triggered a higher IL-2 production by the iNKT cell hybridoma DN32.D3”. In addition, in assay [4] (7 days after α-GalCer stimulation, listed as free α-GalCer), the “PD-1 expression on iNKT cells” value was “induced enhanced PD-1 expression on iNKT cells”. Further, the “Recall response when DCs lacking at primary stimulation” value in assay [4] (CD11c.DTR mice treated with DT, α-GalCer 100 ng/mouse, rechallenge day 7) is “totally blunted”. Further, the “iNKT cell anergy (IFN-γ recall response)” value in assay [4] (second injection of free α-GalCer 100 ng 7 days later, 3 h) is listed as “induced the expected iNKT cell anergy”.
